Laboratory results: publication PMC10288581 (Frontiers in Pharmacology, 2023)
Several values for one entry are separate records, joined by “and”; a condition that tells them apart may be missing. Equal entries are not always repeated. Where two headings read alike, the source gives them in different places.

Assays:
OATP1B1 = test system: OATP1B1; set-up: method as in Müller and Fromm, 2011; Vermeer et al., 2016; settings: ref Müller and Fromm, 2011; Vermeer et al., 2016; cited from earlier work
P-glycoprotein = test system: P-glycoprotein; set-up: method as in Vermeer et al., 2016; settings: in-vitro data; ref Vermeer et al., 2016; cited from earlier work
CYP3A4 [1] = test system: CYP3A4; set-up: method as in Obach et al., 2006; Galetin et al., 2007; settings: ref Obach et al., 2006; Galetin et al., 2007; cited from earlier work
CYP3A4 [2] = test system: CYP3A4; set-up: method as in Elsby et al., 2019; settings: ref Elsby et al., 2019; read-out: inhibition constant Ki; cited from earlier work
OATP 1B3 = test system: OATP 1B3; set-up: method as in Müller and Fromm, 2011; Vermeer et al., 2016; settings: ref Müller and Fromm, 2011; Vermeer et al., 2016; cited from earlier work
MRP2 = test system: MRP2; set-up: method as in Vermeer et al., 2016; settings: in-vitro data; ref Vermeer et al., 2016; cited from earlier work
[3] = cited from earlier work
CYP2C19 = test system: CYP2C19; set-up: method as in Obach et al., 2006; settings: in-vitro data; ref Obach et al., 2006; cited from earlier work
2C9 = test system: 2C9; set-up: method as in Obach et al., 2006; settings: in-vitro data; ref Obach et al., 2006; cited from earlier work
[4] = ref Kristin et al., 2017; cited from earlier work
CYP3A4 [5] = test system: CYP3A4; set-up: method as in Mikus et al., 2006; settings: read-out: Michaelis-Menten constant (Km) of voriconazole oxidase activity; CYP3A4 expressed in human CYP enzyme; ref Mikus et al., 2006; cited from earlier work
[6] = ref Geist et al., 2013; Hohmann et al., 2016; cited from earlier work
clinical = settings: human, in vivo
Text: After the second sequence of drug administration, follow-up data were collected for 2 weeks (from day 16 to day 30) from all volunteers regarding any side effects or toxicity-related issues. […] Blurring vision has been reported as a major side effect in the literature ([Theuretzbacher et al., 2006]). […] In the follow-up period, we carefully monitored the aspartate aminotransferase (AST) and alanine transaminase (ALT) biochemical test reports of that volunteer.

[7] = Single oral dose, randomized, crossover PK-DDI study of voriconazole with clarithromycin; plasma voriconazole by RP HPLC UV-Vis, non-compartmental analysis; assay type: in vivo, human; settings: for Cmaax of voriconazole, Mean & std. Deviation / Erate (elimination rate) of voriconazole, Mean & std. Deviation / tmax (time to reach Cmax) of voriconazole, Mean & std. Deviation: single oral dose; for concentration at 0.5 h / concentration at 1 h / concentration at 1.5 h / concentration at 2 h / concentration at 3 h / concentration at 4 h / concentration at 6 h / concentration at 8 h / concentration at 24 h: male, oral, Voriconazole plasma concentration
Procedure: The study designed was a single oral dose, open-labeled, randomized, crossover, and consisted of 02 weeks of washouts in between for evaluating drug-drug interaction in healthy volunteers.
A 2-week washout period was allocated from day 2 to day 15 to avoid the carry-over effect. […] All volunteers took the medication with a glass of water (250 mL). On days 1 and 16 (treatment days), two and 6 hours after drug administration, standard breakfast and lunch were served to all volunteers, respectively.
After taking blood samples, immediately these samples were centrifuged (at 500 rpm for 10–15 min) to separate plasma from blood (RBC) and stored at −80°C till analysis.
The plasma samples were subjected to protein precipitation and drug extraction with acetonitrile (ACN). A fixed volume of plasma (200 μL), ACN (200 μL), and internal standard (i.e., 2 μg/mL of fluconazole), taken into Eppendorf tubes were vortexed (for 5 min) and kept in the centrifuge at 10,000 RPM for 10–15 min for protein separation. Their supernatant (organic layer) layer was cautiously separated and analyzed by the already developed method. Chromatographic conditions of the HPLC-UV method comprised of isocratic mobile-phase ACN: H2O in 60:40 v/v proportions at a flow rate of 1.5 mL/min and UV detection at 254 nm. Then each sample was analyzed at least three times using the Flexar-series HPLC system, Norwalk, USA, by utilizing a C-18 Perkin-Elmer® column (with particulars of 150 mm length, 4.6 mm inner diameter, and 5 μm particle size). The total run time for each sample was ≤7.0 min.
The pharmacokinetic (PK) parameters used for PK-DDI assessment and plasma drug concentration vs. time profile were analyzed statistically through a non-compartmental approach.Pharmacokinetics PK-Summit® (version 2.0.2; Summit Research Services, Ashland, OH) software was used to evaluate all pharmacokinetic parameters. The various non-compartmental pharmacokinetic (PK) parameters calculated were peak plasma concentration (Cmax, µg/mL), time to reach Cmax (tmax, h), the elimination half-life (E-t1/2, h), an area under the curve from time zero to infinity (AUC^0-∞, μg×h/mL), and the area under the concentration-time curve from time zero to time-t (AUC^0-t, μg×h/mL), mean residence time (MRT, h), elimination rate (Erate, 1/h), apparent clearance (CL/Kg, L/h/Kg) and apparent volume of distribution (Vd, L/Kg).
Descriptive statistical tests were performed using SPSS software (version 21.0; IBM Crop; SPSS®; 2012); for a non-compartmental approach Pharmacokinetics PK-Summit® (version 2.0.2; Summit Research Services, Ashland, OH) software and MS-Excel used for results evaluation, and such data were presented graphically. […] The SPSS software (version 21.0; IBM Crop; SPSS®; 2012) procedure MIXED was used with treatment and visits as a fixed effect and subject as a random effect using the Residual maximum likelihood REML method. Sharpiro-Wilk test was used to check the normality of PK parameters. Log transformation was applied to those PK parameters (such as Cmax, MRT, apparent Vd, and E-t1/2) which were not normally distributed. […] These differences were evaluated by the ratios of geometric means between treatments and used a 90% CI for these ratios.

[8] = Voriz (Alone): voriconazole 200 mg × 2 tablets, n = 12
[9] = Voriz + CLRM: voriconazole 200 mg × 2 tablets + clarithromycin 500 mg tablet, n = 12
[10] = human, plasma, 400 mg, Series 1: voriconazole 400 mg alone
[11] = human, plasma, Series 2: voriconazole 400 mg along with clarithromycin 500 mg
[12] = with clarithromycin versus alone, stated as decrease

CC[C@H]1OC(=O)[C@H](C)[C@@H](O[C@H]2C[C@@](C)(OC)[C@@H](O)[C@H](C)O2)[C@H](C)[C@@H](O[C@@H]2O[C@H](C)C[C@H](N(C)C)[C@H]2O)[C@](C)(OC)C[C@@H](C)C(=O)[C@H](C)[C@@H](O)[C@]1(C)O [clarithromycin, 6-O-Methylerthromycin]
IC50 (OATP1B1): 5.3 ± 1.3 µM | IC50 (P-glycoprotein): 8.9 ± 0.5 µM | potential to inhibit the CYP3A4 at the intestinal level (CYP3A4 [1]): 60%–70 | Ki (CYP3A4 [2]): […] | IC50 (OATP 1B3): 14 ± 2 µM | IC50 (MRP2): > 50 µM | protein binding ([3]; ref Langtry and Brogden, 1997): 42%–72 | inhibitory concentration of CYP2C19 (CYP2C19): 11% | inhibitory concentration of 2C9 (2C9): 4% | BCS class [4]: class-II

C[C@@H](c1ncncc1F)[C@](O)(Cn1cncn1)c1ccc(F)cc1F [voriconazole, (2R, 3S) -2-(2,4-difluorophenyl) -3-(5-fluora-4pyrimidinyl) -1-(1H −1,2,4-trizole-1-yl) -2-butanol]
Km (CYP3A4 [5]): 235 µM | oral bioavailability (B.A) [6]: 96% | protein binding ([3]; ref Geist et al., 2013): 58% | Side effect: blurred vision (clinical): Blurred vision was observed in two volunteers | Side effect: dizziness (clinical): One of our volunteers had felt dizziness | Cmax (clinical; male): 5000 ng/mL | Duration of blurred vision (clinical; male): 10 to 15 min | Cmaax of voriconazole, Mean & std. Deviation ([7]; Voriz (Alone): voriconazole 200 mg × 2 tablets, fasted healthy male volunteers n = 12): 2.52 ± 0.21 µg/mL | Erate (elimination rate) of voriconazole, Mean & std. Deviation [7, 8]: 0.09 h⁻¹ and 0.09 ± 0.02 h⁻¹ | tmax (time to reach Cmax) of voriconazole, Mean & std. Deviation [7, 8]: 2.00 ± 0 h and 2 h | AUC0-t of voriconazole, % difference ([7]; Voriz + CLRM vs Voriz (Alone)): 16% | Apparent Vd/kg of voriconazole, % difference ([7]; Voriz + CLRM vs Voriz (Alone)): −23% | Cmaax of voriconazole, % difference ([7]; Voriz + CLRM vs Voriz (Alone)): 52% | MRT of voriconazole, % difference ([7]; Voriz + CLRM vs Voriz (Alone)): −10% | tmax of voriconazole, % difference ([7]; Voriz + CLRM vs Voriz (Alone)): −25% | Cmaax of voriconazole, Mean & std. Deviation [7, 9]: 3.84 ± 0.562 µg/mL | Erate (elimination rate) of voriconazole, Mean & std. Deviation [7, 9]: 0.11 h⁻¹ and 0.11 ± 0.02 h⁻¹ | tmax (time to reach Cmax) of voriconazole, Mean & std. Deviation [7, 9]: 1.50 ± 0 h and 1.5 h | AUC(0-inf) ([7]; human, plasma, po, 400 mg): 9090 ± 790 ng·h/mL | AUC(0-t) ([7]; human, plasma, po, 400 mg): 8600 ± 720 ng·h/mL | MRT ([7]; human, plasma, po, 400 mg): 6.16 ± 0.95 h | half-life ([7]; human, plasma, po, 400 mg): 7.94 ± 0.53 h | concentration at 0.5 h [7, 10]: 225 ng/mL | concentration at 1 h [7, 10]: 1020 ng/mL | concentration at 1.5 h [7, 10]: 1890 ng/mL | concentration at 2 h [7, 10]: 2520 ng/mL | concentration at 3 h [7, 10]: 1320 ng/mL | concentration at 4 h [7, 10]: 781 ng/mL | concentration at 6 h [7, 10]: 401 ng/mL | concentration at 8 h [7, 10]: 170 ng/mL | concentration at 24 h [7, 10]: 39.1 ng/mL | concentration at 0.5 h [7, 11]: 378 ng/mL | concentration at 1 h [7, 11]: 2040 ng/mL | concentration at 1.5 h [7, 11]: 3840 ng/mL | concentration at 2 h [7, 11]: 2500 ng/mL | concentration at 3 h [7, 11]: 995 ng/mL | concentration at 4 h [7, 11]: 661 ng/mL | concentration at 6 h [7, 11]: 433 ng/mL | concentration at 8 h [7, 11]: 224 ng/mL | concentration at 24 h [7, 11]: 41.8 ng/mL | decrease in tmax of voriconazole [7, 12]: 25% | decrease of E-t1/2 of voriconazole [7, 12]: 26% | decrease of MRT of voriconazole [7, 12]: 10% | reduction (decrease) in the apparent volume of distribution (Vd) of voriconazole [7, 12]: 23%
